Molecular target: Type-1 angiotensin II receptor A (Rattus norvegicus) (UniProt P25095)
Assay: Tested for binding affinity against angiotensin II receptor in rat adrenal cortex

Type-1 angiotensin II receptor A (Rattus norvegicus), sequence (P25095 whole entry, looked up): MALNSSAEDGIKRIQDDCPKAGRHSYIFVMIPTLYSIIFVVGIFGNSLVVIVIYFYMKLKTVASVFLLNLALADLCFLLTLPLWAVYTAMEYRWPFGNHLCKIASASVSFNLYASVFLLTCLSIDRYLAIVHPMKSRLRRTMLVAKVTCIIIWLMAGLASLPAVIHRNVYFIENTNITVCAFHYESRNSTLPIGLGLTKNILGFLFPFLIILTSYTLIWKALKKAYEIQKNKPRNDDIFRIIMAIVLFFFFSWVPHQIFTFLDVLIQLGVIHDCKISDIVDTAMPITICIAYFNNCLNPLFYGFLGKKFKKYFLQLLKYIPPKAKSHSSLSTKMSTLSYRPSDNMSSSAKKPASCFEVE

IC50 [nM]	Structure (SMILES)
14	CCCc1cc(=O)n(CCNC(=O)C(c2ccccc2)c2ccccc2)c(=O)n1Cc1ccc(-c2ccccc2-c2nnn[nH]2)cc1 [N-(2-{2,6-Dioxo-4-propyl-3-[2'-(1H-tetrazol-5-yl)-biphenyl-4-ylmethyl]-3,6-dihydro-2H-pyrimidin-1-yl}-ethyl)-2,2-diphenyl-acetamide]
4.4	CCCc1cc(=O)n(CCN2C(=O)c3ccccc3C2=O)c(=O)n1Cc1ccc(-c2ccccc2-c2nnn[nH]2)cc1 [2-(2-{2,6-Dioxo-4-propyl-3-[2'-(1H-tetrazol-5-yl)-biphenyl-4-ylmethyl]-3,6-dihydro-2H-pyrimidin-1-yl}-ethyl)-isoindole-1,3-dione]
